# Active and inactive are the calls of the source. The rule behind the calls is not given here.
# Legend:
# Jurkat [1] = test: Cytotoxicity against human Jurkat cells measured for 72 hrs by celltiter-glo assay
# HAL-01 [2] = test: Cytotoxicity against human HAL-01 cells measured for 72 hrs by celltiter-glo assay; conditions: HAL-01, 72 h
# HL-60 [3] = test: Cytotoxicity against human HL-60 cells measured for 72 hrs by celltiter-glo assay; conditions: HL-60, 72 h
# Jurkat [4] = test: Synergistic cytotoxicity against human Jurkat cells measured after 72 hrs in presence of decitabine by celltiter-glo assay; format: functional, cell-based
# Histone deacetylase 2 = Histone deacetylase 2 (Homo sapiens, UniProt Q92769); test: biochemical; format: cell-based, Sf9
# Chain of Histone deacetylase 2 (Q92769 whole entry, the tested form may be a part): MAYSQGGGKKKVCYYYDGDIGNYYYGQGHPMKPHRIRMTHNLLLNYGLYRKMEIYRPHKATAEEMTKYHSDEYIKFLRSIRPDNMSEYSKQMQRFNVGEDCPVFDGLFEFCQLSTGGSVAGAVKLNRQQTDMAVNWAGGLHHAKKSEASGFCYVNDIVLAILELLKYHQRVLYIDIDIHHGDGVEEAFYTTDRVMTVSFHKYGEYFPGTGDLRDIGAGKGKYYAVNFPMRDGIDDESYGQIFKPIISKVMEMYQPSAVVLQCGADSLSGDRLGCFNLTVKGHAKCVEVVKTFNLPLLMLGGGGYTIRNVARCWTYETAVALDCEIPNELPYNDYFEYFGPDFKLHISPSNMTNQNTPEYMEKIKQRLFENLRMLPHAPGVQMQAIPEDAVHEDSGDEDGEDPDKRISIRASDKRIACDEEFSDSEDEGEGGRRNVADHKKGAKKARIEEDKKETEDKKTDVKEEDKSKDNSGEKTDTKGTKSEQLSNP
# Description: Inhibition of C-terminal FLAG-tagged human recombinant HDAC2 (1 to 488 residues) expressed in Sf9 insect cells using ZMAL-(Z-Lys(Ac)-AMC as substrate measured for 90 mins by microplate reader analysis
# [5] = target: Histone deacetylase 3/Nuclear receptor corepressor 2 (HDAC3/NCoR2) (Homo sapiens, UniProt O15379); test: Inhibition of C-terminal his-tagged human recombinant HDAC3 (1 to 428 residues)/N-terminal GST-tagged human recombinant NCOR2 (395 to 489 residues) expressed in Sf9 insect cells using ZMAL-(Z-Lys(Ac)-AMC as substrate measured for 90 mins by microplate reader analysis
# Chain of Histone deacetylase 3/Nuclear receptor corepressor 2 (HDAC3/NCoR2) (O15379 whole entry, the tested form may be a part): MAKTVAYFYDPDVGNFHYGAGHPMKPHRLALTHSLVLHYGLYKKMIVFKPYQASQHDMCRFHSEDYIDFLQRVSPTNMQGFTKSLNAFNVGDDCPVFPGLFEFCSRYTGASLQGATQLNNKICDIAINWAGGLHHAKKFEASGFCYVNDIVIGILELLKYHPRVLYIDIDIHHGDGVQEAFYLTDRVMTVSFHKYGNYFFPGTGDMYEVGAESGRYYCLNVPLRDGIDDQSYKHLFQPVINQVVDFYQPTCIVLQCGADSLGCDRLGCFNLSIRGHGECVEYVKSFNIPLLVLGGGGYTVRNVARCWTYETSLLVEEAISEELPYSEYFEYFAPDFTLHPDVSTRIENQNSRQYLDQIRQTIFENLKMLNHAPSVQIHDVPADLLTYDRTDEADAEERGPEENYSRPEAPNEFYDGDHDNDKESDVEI
# Chain of Histone deacetylase 3/Nuclear receptor corepressor 2 (HDAC3/NCoR2) (Q9Y618 whole entry, further chain, the tested form may be a part): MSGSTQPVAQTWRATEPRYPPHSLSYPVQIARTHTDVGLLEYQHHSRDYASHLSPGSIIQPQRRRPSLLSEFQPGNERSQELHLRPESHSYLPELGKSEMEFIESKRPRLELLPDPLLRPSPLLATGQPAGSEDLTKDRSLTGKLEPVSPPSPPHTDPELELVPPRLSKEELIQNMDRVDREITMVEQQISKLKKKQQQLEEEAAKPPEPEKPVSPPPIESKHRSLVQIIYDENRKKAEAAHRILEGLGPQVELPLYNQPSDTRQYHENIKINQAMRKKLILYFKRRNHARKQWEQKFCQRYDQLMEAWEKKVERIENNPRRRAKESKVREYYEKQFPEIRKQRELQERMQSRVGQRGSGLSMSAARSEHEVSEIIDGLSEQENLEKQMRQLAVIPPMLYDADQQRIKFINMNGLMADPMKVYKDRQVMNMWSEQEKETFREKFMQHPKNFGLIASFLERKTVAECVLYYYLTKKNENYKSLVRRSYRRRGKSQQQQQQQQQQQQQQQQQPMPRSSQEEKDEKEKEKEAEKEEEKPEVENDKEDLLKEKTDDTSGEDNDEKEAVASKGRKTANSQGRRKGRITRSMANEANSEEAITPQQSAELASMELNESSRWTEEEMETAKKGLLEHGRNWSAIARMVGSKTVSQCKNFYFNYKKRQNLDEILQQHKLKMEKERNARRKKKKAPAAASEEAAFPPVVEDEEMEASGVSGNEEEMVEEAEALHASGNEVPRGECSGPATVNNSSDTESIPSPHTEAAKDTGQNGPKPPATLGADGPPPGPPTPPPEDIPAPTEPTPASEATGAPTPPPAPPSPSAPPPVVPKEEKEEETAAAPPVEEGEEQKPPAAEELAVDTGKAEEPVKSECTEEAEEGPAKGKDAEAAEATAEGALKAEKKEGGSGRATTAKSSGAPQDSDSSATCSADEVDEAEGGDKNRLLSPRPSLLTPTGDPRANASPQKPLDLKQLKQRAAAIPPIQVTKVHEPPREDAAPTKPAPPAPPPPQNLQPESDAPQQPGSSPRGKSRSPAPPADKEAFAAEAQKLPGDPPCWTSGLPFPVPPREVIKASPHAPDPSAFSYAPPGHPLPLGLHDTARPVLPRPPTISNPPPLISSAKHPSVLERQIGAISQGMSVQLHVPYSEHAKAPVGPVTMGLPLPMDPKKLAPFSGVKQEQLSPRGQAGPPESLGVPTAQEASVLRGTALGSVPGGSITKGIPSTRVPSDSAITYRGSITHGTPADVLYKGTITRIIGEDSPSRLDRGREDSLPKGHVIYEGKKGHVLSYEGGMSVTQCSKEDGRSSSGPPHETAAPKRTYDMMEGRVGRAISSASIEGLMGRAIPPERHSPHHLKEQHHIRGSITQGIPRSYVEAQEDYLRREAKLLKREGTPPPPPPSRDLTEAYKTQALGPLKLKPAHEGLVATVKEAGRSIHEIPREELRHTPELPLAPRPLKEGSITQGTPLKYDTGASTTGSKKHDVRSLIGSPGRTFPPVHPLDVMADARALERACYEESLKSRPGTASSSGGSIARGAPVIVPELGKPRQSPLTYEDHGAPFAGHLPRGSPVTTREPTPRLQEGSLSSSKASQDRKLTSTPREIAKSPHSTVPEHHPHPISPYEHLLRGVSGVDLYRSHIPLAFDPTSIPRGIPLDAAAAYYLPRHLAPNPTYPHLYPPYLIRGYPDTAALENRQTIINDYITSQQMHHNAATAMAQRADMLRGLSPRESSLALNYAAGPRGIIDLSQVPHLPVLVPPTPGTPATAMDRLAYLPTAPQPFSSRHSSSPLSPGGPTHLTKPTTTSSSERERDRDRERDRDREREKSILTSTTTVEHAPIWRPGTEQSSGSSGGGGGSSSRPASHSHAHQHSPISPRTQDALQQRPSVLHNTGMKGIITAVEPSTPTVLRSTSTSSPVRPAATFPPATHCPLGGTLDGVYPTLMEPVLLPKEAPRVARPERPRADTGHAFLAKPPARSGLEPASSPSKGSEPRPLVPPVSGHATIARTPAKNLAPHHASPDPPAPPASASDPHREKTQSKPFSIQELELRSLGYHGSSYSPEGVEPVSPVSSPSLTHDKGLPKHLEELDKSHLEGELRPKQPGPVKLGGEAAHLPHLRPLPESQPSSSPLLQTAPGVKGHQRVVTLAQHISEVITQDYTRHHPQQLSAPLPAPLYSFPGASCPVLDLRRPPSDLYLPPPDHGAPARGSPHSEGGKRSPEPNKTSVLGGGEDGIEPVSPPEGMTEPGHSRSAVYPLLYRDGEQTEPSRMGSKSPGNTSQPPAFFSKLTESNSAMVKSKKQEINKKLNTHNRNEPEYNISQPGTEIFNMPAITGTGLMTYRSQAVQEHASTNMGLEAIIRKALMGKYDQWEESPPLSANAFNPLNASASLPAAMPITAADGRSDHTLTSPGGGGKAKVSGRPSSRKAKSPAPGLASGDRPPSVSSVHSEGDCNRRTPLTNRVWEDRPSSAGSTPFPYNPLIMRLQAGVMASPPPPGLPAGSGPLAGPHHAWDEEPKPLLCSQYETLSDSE
# HAL-01 [6] = test: Synergistic cytotoxicity against human HAL-01 cells measured after 72 hrs in presence of decitabine by celltiter-glo assay; format: functional, cell-based
# Histone deacetylase 1 = Histone deacetylase 1 (Homo sapiens, UniProt Q13547); test: Inhibition of C-terminal his/FLAG-tagged full length human recombinant HDAC1 (1 to 482 residues) expressed in Sf9 insect cells using ZMAL-(Z-Lys(Ac)-AMC as substrate measured for 90 mins by microplate reader analysis
# Chain of Histone deacetylase 1 (Q13547 whole entry, the tested form may be a part): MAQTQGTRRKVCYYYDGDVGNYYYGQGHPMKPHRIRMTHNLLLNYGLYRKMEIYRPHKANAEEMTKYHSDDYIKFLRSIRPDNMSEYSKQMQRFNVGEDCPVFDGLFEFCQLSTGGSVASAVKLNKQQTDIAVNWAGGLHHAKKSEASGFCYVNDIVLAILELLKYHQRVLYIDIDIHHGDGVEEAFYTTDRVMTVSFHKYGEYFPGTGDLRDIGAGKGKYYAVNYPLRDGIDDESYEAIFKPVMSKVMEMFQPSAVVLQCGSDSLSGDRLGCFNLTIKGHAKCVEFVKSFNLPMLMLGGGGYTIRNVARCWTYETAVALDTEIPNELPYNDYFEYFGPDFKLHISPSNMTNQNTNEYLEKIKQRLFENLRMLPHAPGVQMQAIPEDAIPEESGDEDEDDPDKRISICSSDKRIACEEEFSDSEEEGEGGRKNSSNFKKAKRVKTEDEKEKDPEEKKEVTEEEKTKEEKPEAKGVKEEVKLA
# HL-60 [7] = test: Induction of apoptosis in human HL-60 cells assessed as increase in early apoptotic cells at 1 to 5 uM measured for 48 hrs by Annexin/PI staining based analysis; format: functional, cell-based; conditions: dose 1-5 µM
# HL-60 [8] = test: Induction of apoptosis in human HL-60 cells assessed as increase in dead cells at 1 to 5 uM measured for 48 hrs by Annexin/PI staining based analysis; format: functional, cell-based; conditions: dose 1-5 µM
# HL-60 [9] = test: Induction of apoptosis in human HL-60 cells assessed as increase in late apoptotic cells at 1 to 5 uM measured for 48 hrs by Annexin/PI staining based analysis; format: functional, cell-based; conditions: dose 1-5 µM
# MOLM-13 = test: Synergistic cytotoxicity against human MOLM-13 cells measured after 72 hrs in presence of decitabine by celltiter-glo assay; format: functional, cell-based
# HL-60 [10] = test: Induction of apoptosis in human HL-60 cells assessed as viable cells at 1 to 5 uM measured for 48 hrs by Annexin/PI staining based analysis; format: functional; conditions: dose 1-5 µM
# HL-60 [11] = conditions: Homo sapiens, dose 24.0 nM, time 24.0 hrs
# HL-60 [12] = conditions: Homo sapiens, dose 24.0 nM, time 24.0 hrs; remark: listed apart in the source
SMILES,IC50 (Jurkat [1]) [µM],IC50 (HAL-01 [2]) [µM],IC50 (HL-60 [3]) [µM],also measured
Cc1cccc(N(CC(=O)NC2CCCCC2)C(=O)Cc2ccc(C(=O)NO)cc2)c1,2.59,1.89,1.75,–
Cc1ccccc1N(CC(=O)NC1CCCCC1)C(=O)Cc1ccc(C(=O)NO)cc1,2.52,1.51,2.31,–
CCc1ccccc1N(CC(=O)NC1CCCCC1)C(=O)Cc1ccc(C(=O)NO)cc1,2.28,1.43,1.34,–
Cc1ccccc1N(CC(=O)NC1CCCCC1)C(=O)Cc1ccc(C(=O)NO)cc1F,3.08,2.32,2.04,Activity (Jurkat [4]): inactive; IC50 (Histone deacetylase 2): 0.787 µM; IC50 [5]: 0.52 µM; Activity (HAL-01 [6]): inactive
O=C(CN(C(=O)Cc1ccc(C(=O)NO)cc1F)c1ccccc1C(F)(F)F)NC1CCCCC1,2.28,1.79,1.61,–
O=C(CN(C(=O)Cc1ccc(C(=O)NO)cc1)c1ccccc1)NCc1ccccc1,2.29,2.15,2.31,IC50 (Histone deacetylase 1): 0.283 µM
O=C(CN(C(=O)Cc1ccc(C(=O)NO)cc1)c1ccccc1C(F)(F)F)NC1CCCCC1,4.58,3.03,2.09,–
Cc1ccc(N(CC(=O)NC2CCCCC2)C(=O)Cc2ccc(C(=O)NO)cc2)cc1,0.41,0.23,0.36,Activity (HL-60 [7]): Active; Activity (HL-60 [8]): Active; IC50 (Histone deacetylase 2): 0.112 µM; IC50 [5]: 0.042 µM; Activity (HL-60 [9]): Active; Activity (MOLM-13): Active; Activity (HL-60 [10]): 50%; inhibition (HL-60 [11]): 2.67%; inhibition (HL-60 [12]): Active; Activity (HAL-01 [6]): Active
O=C(CN(C(=O)Cc1ccc(C(=O)NO)cc1F)c1ccccc1)NC1CCCCC1,2.42,2.08,1.34,–
CC(C)(C)NC(=O)CN(C(=O)Cc1ccc(C(=O)NO)cc1)c1ccccc1,8.31,4.91,5.99,–
CCCCNC(=O)CN(C(=O)Cc1ccc(C(=O)NO)cc1)c1ccccc1,4.03,3.12,2.68,–
O=C(CN(C(=O)Cc1ccc(C(=O)NO)cc1)c1ccccc1)NC1CCCCC1,2.54,2.02,1.83,–
CCc1ccccc1N(CC(=O)NC1CCCCC1)C(=O)Cc1ccc(C(=O)NO)cc1F,3.21,1.44,1.51,–

# From ChEMBL document CHEMBL5523710 (Eur J Med Chem, 2024)
